In series [1] the test system is BxPc3 cells. The series is described as follows: Cell cycle distribution by propidium iodide flow cytometry (G2/M arrest). It is filed as cell-based, human. The note with it: 1 nM of equivalent paclitaxel. Here is the method: As radiation sensitization is driven by late G2/M arrest, the effects of paclitaxel on cell cycle progression were examined. BxPc3 cells were treated in vitro with 1 nM of equivalent paclitaxel, stained with propidium iodide to measure relative DNA quantities, and analyzed by flow cytometry to assess the cell cycle distribution over time.
A general note: A flow cytometer gives signals particle by particle.

Series [2] relates to BxPc3 cells. The series is described as follows: MTS cell proliferation assay (in vitro cytotoxicity). Background: Formazan colour is commonly taken as a measure of viable cells.
Experimental: (§1) In vitro cytotoxicity assessment. All cell lines were cultured in monolayers in sterile, vented culture flasks (Corning). Cells were passaged, collected, and then counted with 0.4% Trypan Blue (Thermo Fisher Scientific). Cells were then formulated in their respective media and plated in 96-well plates at 5,000 cells per well in 100 μL. After allowing cells to incubate at 37° C. for 12 h, drugs were then added to the wells. Each drug was formulated at the highest concentration in the cell media and then serially diluted. A PTX equivalent concentration between 10-4 and 10-12 M of each construct was plated in quadruplicate and allowed to incubate for 72 h. 20 μL of CellTiter 96® AQueoous One solution (Promega) was then added to each well. After 1.5 h, the absorbance of each plate was read at 490 nm and normalized to untreated cells to determine the relative cell survival. The half effective concentration (EC50) was calculated as the inflection between the curve's maxima and minima.
The test system of series [3] is BxPc3, MIA PaCa-2 and AsPc-1 pancreatic cells. The series can be described thus: In vitro cytotoxicity by MTS across pancreatic cell lines. Conditions: FIG. 5.
Experimental: as §1

Take `CC(=O)O[C@H]1C(=O)[C@@]2(C)[C@H]([C@H](OC(=O)c3ccccc3)[C@]3(O)C[C@H](OC(=O)[C@H](O)[C@@H](NC(=O)c4ccccc4)c4ccccc4)C(C)=C1C3(C)C)[C@]1(OC(C)=O)CO[C@@H]1C[C@@H]2O` [PTX, paclitaxel]: in the series on BxPc3 cells [1], the “peak proportion of cell population in G2/M phase” value was found to be 37.9% and the “time to maximum proportion of G2/M cells” value is recorded as 12 h. The in vitro cytotoxicity entry in the series on BxPc3 cells [2] (FIG. 4A) is “nanomolar”. In addition, the EC50 in the series with BxPc3 cells [2] (Homo sapiens, BXPC-3, 72 h, read-out: relative half-inhibitory concentration (EC50)) worked out at 3.7 nM. The “cytotoxicity in each cell line” value in series [3] was “nanomolar cytotoxicity”.
